Measured values from US11214803B2, “Modulators of YAP1 expression” (Ionis Pharmaceuticals, Inc., priority 2019, dated 2022).
Strand notation (5' to 3'): a small letter for the sugar, then the base; units joined by * are phosphorothioate-linked, units joined directly phosphodiester-linked; [ ] holds rarer units or linkages, { } end groups; capitals alone tell only the bases. k = constrained ethyl (cEt); [5mC] = 5-methylcytosine; d = 2'-deoxy (DNA)

Experiments:
SNU449 cells = test: Cell proliferation assay in SNU449 cells in combination with sorafenib, CellTiter-Glo (Example 48); assay type: cell-based, human; conditions: 144 hours
Description: (§1) Modified oligonucleotides described in the studies above were tested at various doses in hepatocellular carcinoma cell line SNU449. ION No. 792169, described herein above, was used as a control modified oligonucleotide. ION No. 715487 was used to target Yap1 RNA. […] After approximately 48 hours, Yap1 mRNA levels were measured.
144 hours post treatment, proliferation of SNU449 cells was measured using the luminescent cell viability CellTiter-Glo® 2.0 Assay (Promega). Results are presented in the tables below as percent control of the amount of luminescence in samples treated with modified oligonucleotides relative to untreated control cells (% UTC).

Yap1 mRNA [1] = test: Dose-dependent inhibition of human Yap1 in A-431 cells (Example 6, 5,000 cells per well, RTS4814); assay type: cell-based; conditions: Table 53, A-431 cells
Method in brief: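 A-431 cells (5,000/well) took up oligonucleotides by free uptake at various doses for about 48 h. Yap1 mRNA was measured by RT-PCR (RTS4814), normalised to RIBOGREEN total RNA and expressed as % untreated control; IC50 by linear regression on a log/linear plot.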

Yap1 mRNA [2] = test: Yap1 mRNA in SNU449 cells in combination with sorafenib (Example 48); assay type: cell-based, human; conditions: free uptake, approximately 48 hours
Description: as §1
Yap1 mRNA knockdown in tumors was measured by RT-qPCR as previously described using the Human Yap1 primer-probe set RTS4814. Yap1 mRNA levels were normalized to actin-beta content, as measured by primer probe set RTS5002. Results are presented in the tables below as percent control of the amount of Yap1 mRNA relative to PBS treated cells (% control).

[3] = Tolerability in CD-1 mice, body and organ weights (Example 15); assay type: in vivo; conditions: male CD-1 mice, 50 mg/kg s.c. twice a week for four weeks (8 treatments), end of study (day 26)
Description: Groups of four male CD-1 mice at 4-5 weeks of age (obtained from Charles River) were injected subcutaneously twice a week for four weeks (for a total of 8 treatments) with 50 mg/kg of modified oligonucleotides. One group of male CD-1 mice was injected with PBS. Mice were euthanized on day 26 post start of treatment (24 hrs following the final administration).
Body weights of CD-1 mice were measured at the end of the study, and the average body weight for each group is presented in the table below. Modified oligonucleotides that caused any changes in organ weights outside the expected range for modified oligonucleotides were excluded from further studies.

ERK1/2 = test: Measurement of ERK activation (pERK/ERK) in SNU449 xenograft model with sorafenib (second Example 30); assay type: in vivo, human; conditions: SNU449 xenograft tumors, pERK/ERK relative to PBS control, oligonucleotide 50 mg/kg, sorafenib 30 mg/kg orally
Description: Five million SNU449 cells in 30% matrigel were implanted subcutaneously into the fatpads of female NOD.Cg-Prkdcscid II2rgtmlWjl/SzJ mice (from Jackson Laboratory) at 4-6 weeks of age. 43 days post implantation (when tumors had reached approximately 100 mm^3 in size), groups of eight mice each were administered with 50 mg/kg modified oligonucleotide daily for 10 days (loading dose), following which they were administered with 50 mg/kg modified oligonucleotide four times a week for one week, following which they were dosed with 50 mg/kg modified oligonucleotide thrice weekly until the end of the study.
Protein analysis was carried out using standard procedures. […] ERK protein levels were compared to internal control GAPDH. […] The secondary antibody used was donkey anti-rabbit NA934, GE Healthcare. pERK/ERK levels were calculated relative to PBS control to determine % activation of ERK1/2.

Yap1 mRNA [4] = test: Yap1 mRNA levels in SNU449 xenograft tumors (first Example 30); assay type: in vivo, human; conditions: SNU449 xenograft mice, 50 mg/kg, tumors collected day 119 post implantation, relative to PBS
Description: Modified oligonucleotides described in the studies above were tested in a hepatocellular carcinoma SNU449 xenograft tumor model. A control oligonucleotide 792169 was also tested.
Five million SNU449 cells in 30% matrigel were implanted subcutaneously into the fatpads of female NOD.Cg-Prkdcscid II2rgtmlWjl/SzJ mice (from Jackson Laboratory) at 4-6 weeks of age. 43 days post implantation (when tumors had reached approximately 100 mm^3 in size), groups of eight mice each were administered with 50 mg/kg modified oligonucleotide daily for 10 days (loading dose), following which they were administered with 50 mg/kg modified oligonucleotide four times a week for one week, following which they were dosed with 50 mg/kg modified oligonucleotide thrice weekly until the end of the study. Animals were sacrificed and tumors were collected on day 119 post implantation. Yap1 mRNA knockdown in tumors was measured by RT-qPCR as previously described using the Human Yap1 primer-probe set RTS4814. Yap1 mRNA levels were normalized to actin-beta content, as measured by primer probe set RTS5002. Results are presented in the tables below as percent control of the amount of Yap1 mRNA relative to PBS treated animals (% control).

[5] = oligonucleotide at 0.04 uM, sorafenib 0 uM
[6] = oligonucleotide at 0.04 uM, sorafenib 0.37 uM
[7] = oligonucleotide at 0.04 uM, sorafenib 3.33 uM
[8] = oligonucleotide at 0.04 uM, sorafenib 10 uM
[9] = oligonucleotide at 0.04 uM, sorafenib […]
[10] = oligonucleotide at 0.2 uM, sorafenib 0 uM
[11] = oligonucleotide at 0.2 uM, sorafenib 0.37 uM
[12] = oligonucleotide at 0.2 uM, sorafenib 3.33 uM
[13] = oligonucleotide at 0.2 uM, sorafenib 10 uM
[14] = oligonucleotide at 0.2 uM, sorafenib […]
[15] = oligonucleotide at 1 uM, sorafenib 0 uM
[16] = oligonucleotide at 1 uM, sorafenib 0.37 uM
[17] = oligonucleotide at 1 uM, sorafenib 3.33 uM
[18] = oligonucleotide at 1 uM, sorafenib 10 uM
[19] = oligonucleotide at 1 uM, sorafenib […]
[20] = oligonucleotide at 5 uM, sorafenib 0 uM
[21] = oligonucleotide at 5 uM, sorafenib 0.37 uM
[22] = oligonucleotide at 5 uM, sorafenib 3.33 uM
[23] = oligonucleotide at 5 uM, sorafenib 10 uM
[24] = oligonucleotide at 5 uM, sorafenib […]

Which “Antiproliferative effect (cell proliferation, luminescence)” value (“Antiproliferative effect” for short) (SNU449 cells; [5]) does the source give for “715487 (kA*kT*kT*dA*d[5mC]*dT*dT*d[5mC]*dA*dT*dA*dG*d[5mC]*kT*kT*kA) [compound 715487]” here?
Its value is 98 % UTC.

What about the “Antiproliferative effect” value (SNU449 cells; [6]) of the same substance?
The value was 102 % UTC.

And the “Antiproliferative effect” value (SNU449 cells; [7])?
The value was 27 % UTC.

What about the “Antiproliferative effect” value (SNU449 cells; [8]) of the same substance?
The value was 2 % UTC.

And the “Antiproliferative effect” value (SNU449 cells; [9])?
The value was 93 % UTC.

And the “Antiproliferative effect” value (SNU449 cells; [10])?
Its value is 93 % UTC.

What about the “Antiproliferative effect” value (SNU449 cells; [11]) of the same substance?
The value was 94 % UTC.

What about the “Antiproliferative effect” value (SNU449 cells; [12]) of the same substance?
Its value is 12 % UTC.

And the “Antiproliferative effect” value (SNU449 cells; [13])?
The value was 2 % UTC.

What about the “Antiproliferative effect” value (SNU449 cells; [14]) of the same substance?
The value was 77 % UTC.

What about the “Antiproliferative effect” value (SNU449 cells; [15]) of the same substance?
The value was 84 % UTC.

What about the “Antiproliferative effect” value (SNU449 cells; [16]) of the same substance?
The value was 83 % UTC.

And the “Antiproliferative effect” value (SNU449 cells; [17])?
The value was 5 % UTC.

What about the “Antiproliferative effect” value (SNU449 cells; [18]) of the same substance?
The value was 1 % UTC.

And the “Antiproliferative effect” value (SNU449 cells; [19])?
The value was 45 % UTC.

And the “Antiproliferative effect” value (SNU449 cells; [20])?
Its value is 64 % UTC.

And the “Antiproliferative effect” value (SNU449 cells; [21])?
Its value is 64 % UTC.

And the “Antiproliferative effect” value (SNU449 cells; [22])?
The value was 3 % UTC.

And the “Antiproliferative effect” value (SNU449 cells; [23])?
The value was 1 % UTC.

What about the “Antiproliferative effect” value (SNU449 cells; [24]) of the same substance?
The value was 23 % UTC.

And the IC50 (Yap1 mRNA [1]; Yap1 mRNA, linear regression on a log/linear plot)?
The IC50 was 1000 nM.

And the “% UTC 148 nM” value (Yap1 mRNA [1]; free uptake, 148 nM, approximately 48 hours, RTS4814)?
Its value is 87 % UTC.

What about the “% UTC 444 nM” value (Yap1 mRNA [1]; free uptake, 444 nM, approximately 48 hours, RTS4814) of the same substance?
Its value is 56 % UTC.

What about the “% UTC 1333 nM” value (Yap1 mRNA [1]; free uptake, 1333 nM, approximately 48 hours, RTS4814) of the same substance?
The value was 48 % UTC.

And the “% UTC 4000 nM” value (Yap1 mRNA [1]; free uptake, 4000 nM, approximately 48 hours, RTS4814)?
The value was 29 % UTC.

What about the “YAP1 mRNA” value (Yap1 mRNA [2]; [5]) of the same substance?
The value was 98 % control.

And the “YAP1 mRNA” value (Yap1 mRNA [2]; [6])?
Its value is 97 % control.

What about the “YAP1 mRNA” value (Yap1 mRNA [2]; [7]) of the same substance?
Its value is 83 % control.

And the “YAP1 mRNA” value (Yap1 mRNA [2]; [8])?
The value was 78 % control.

What about the “YAP1 mRNA” value (Yap1 mRNA [2]; [9]) of the same substance?
The value was 77 % control.

What about the “YAP1 mRNA” value (Yap1 mRNA [2]; [10]) of the same substance?
The value was 54 % control.

What about the “YAP1 mRNA” value (Yap1 mRNA [2]; [11]) of the same substance?
The value was 51 % control.

And the “YAP1 mRNA” value (Yap1 mRNA [2]; [12])?
The value was 45 % control.

What about the “YAP1 mRNA” value (Yap1 mRNA [2]; [13]) of the same substance?
Its value is 46 % control.

What about the “YAP1 mRNA” value (Yap1 mRNA [2]; [14]) of the same substance?
Its value is 44 % control.

What about the “YAP1 mRNA” value (Yap1 mRNA [2]; [15]) of the same substance?
Its value is 30 % control.

And the “YAP1 mRNA” value (Yap1 mRNA [2]; [16])?
Its value is 23 % control.

And the “YAP1 mRNA” value (Yap1 mRNA [2]; [17])?
The value was 21 % control.

What about the “YAP1 mRNA” value (Yap1 mRNA [2]; [18]) of the same substance?
Its value is 20 % control.

What about the “YAP1 mRNA” value (Yap1 mRNA [2]; [19]) of the same substance?
Its value is 22 % control.

What about the “YAP1 mRNA” value (Yap1 mRNA [2]; [20]) of the same substance?
The value was 9 % control.

What about the “YAP1 mRNA” value (Yap1 mRNA [2]; [21]) of the same substance?
The value was 8 % control.

And the “YAP1 mRNA” value (Yap1 mRNA [2]; [22])?
Its value is 7 % control.

What about the “YAP1 mRNA” value (Yap1 mRNA [2]; [23]) of the same substance?
Its value is 8 % control.

What about the “YAP1 mRNA” value (Yap1 mRNA [2]; [24]) of the same substance?
Its value is 7 % control.

What about the Kidney weight [3] of the same substance?
The Kidney weight was 0.59 g.

What about the Liver weight [3] of the same substance?
Its Liver weight is 2.24 g.

And the Spleen weight [3]?
The Spleen weight was 0.21 g.

And the body weight [3]?
Its body weight is 41 g.

For “1198440 (AAGTGTATGTCAGAAG; cEt, 2'-MOE, 5-methylcytosine, phosphorothioate modifications, further chemistry not given here) [compound 1198440]”, which “% activation of ERK1/2” value (ERK1/2) is on record?
The value was 88%.

What about the “Yap1 mRNA levels in tumors” value (Yap1 mRNA [4]) of the same substance?
The value was 34 % control.
